Calls of active or inactive are those of the source. The rule behind the calls is not given here.
Columns and labels:
Danio rerio [1] = experiment: Induction of arterial and venous genes dys-regulation in zebrafish larvae harboring fli1 a:eGFP,-6.5kdrl:mCherry assessed as effect on dll4 gene expression at 1.5 uM dosed starting from 16 hpf and measured at 24 and 48 hpf by qRT-PCR analysis; format: functional, organism-based
[2] = target: Acetylcholine receptor subunit alpha (Homo sapiens) (UniProt P02708); experiment: Inhibition of human nAChR alpha1 channel at 10 uM relative to control
Sequence of Acetylcholine receptor subunit alpha (Homo sapiens) (P02708 whole entry): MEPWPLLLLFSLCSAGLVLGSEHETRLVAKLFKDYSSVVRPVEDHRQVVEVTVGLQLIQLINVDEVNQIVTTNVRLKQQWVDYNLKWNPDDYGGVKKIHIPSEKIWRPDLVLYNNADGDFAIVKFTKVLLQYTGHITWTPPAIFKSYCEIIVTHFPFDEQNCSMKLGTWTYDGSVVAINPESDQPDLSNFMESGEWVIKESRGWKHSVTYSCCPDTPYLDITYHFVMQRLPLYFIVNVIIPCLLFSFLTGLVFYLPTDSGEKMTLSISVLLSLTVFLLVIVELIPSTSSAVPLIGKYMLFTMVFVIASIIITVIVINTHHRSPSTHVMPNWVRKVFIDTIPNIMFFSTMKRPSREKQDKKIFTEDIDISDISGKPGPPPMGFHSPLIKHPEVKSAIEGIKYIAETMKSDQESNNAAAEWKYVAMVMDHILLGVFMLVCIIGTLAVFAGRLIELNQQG

[3] = target: Sigma non-opioid intracellular receptor 1 (Homo sapiens) (UniProt Q99720); experiment: Inhibition of human sigma1 receptor at 10 uM relative to control
[4] = target: Transcription factor SOX-18 (Homo sapiens, UniProt P35713); experiment: Inhibition of SOX18 in HUVEC assessed as reduction of SOX18-ESR1 interactions incubated for 45 mins by Alpha-screen assay; format: cell-based
Danio rerio [5] = experiment: Induction of arterial and venous genes dys-regulation in zebrafish larvae harboring fli1 a:eGFP,-6.5kdrl:mCherry assessed as effect on mCherry gene expression at 1.5 uM dosed starting from 16 hpf and measured at 24 and 48 hpf by qRT-PCR analysis; format: functional, organism-based
[6] = target: Glutamate NMDA receptor (Rattus norvegicus) (UniProt P35439+Q00959+Q00960+Q00961+Q62645+Q8VHN2+Q9R1M7); experiment: Inhibition of rat NMDA glutamate receptor at 10 uM relative to control; format: protein-complex assay
[7] = target: 5-hydroxytryptamine receptor 2B (Homo sapiens) (UniProt P41595); experiment: Inhibition of human 5HT2B receptor at 10 uM relative to control
Sequence of 5-hydroxytryptamine receptor 2B (Homo sapiens) (P41595 whole entry): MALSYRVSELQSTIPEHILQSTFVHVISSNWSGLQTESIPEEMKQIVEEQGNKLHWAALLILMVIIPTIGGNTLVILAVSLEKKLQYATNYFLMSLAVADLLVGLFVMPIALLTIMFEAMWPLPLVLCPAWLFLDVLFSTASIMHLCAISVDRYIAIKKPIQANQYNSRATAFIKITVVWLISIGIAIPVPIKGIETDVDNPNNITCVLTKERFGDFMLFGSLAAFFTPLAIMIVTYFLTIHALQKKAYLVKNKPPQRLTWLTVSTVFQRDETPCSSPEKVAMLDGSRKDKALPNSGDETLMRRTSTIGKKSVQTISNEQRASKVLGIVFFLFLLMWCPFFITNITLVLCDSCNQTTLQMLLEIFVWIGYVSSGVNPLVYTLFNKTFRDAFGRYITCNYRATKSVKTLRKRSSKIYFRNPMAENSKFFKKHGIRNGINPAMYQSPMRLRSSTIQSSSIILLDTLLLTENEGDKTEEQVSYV

[8] = target: Histone deacetylase 4 (Homo sapiens) (UniProt P56524); experiment: Inhibition of human HDAC4 at 10 uM relative to control
Sequence of Histone deacetylase 4 (Homo sapiens) (P56524 whole entry): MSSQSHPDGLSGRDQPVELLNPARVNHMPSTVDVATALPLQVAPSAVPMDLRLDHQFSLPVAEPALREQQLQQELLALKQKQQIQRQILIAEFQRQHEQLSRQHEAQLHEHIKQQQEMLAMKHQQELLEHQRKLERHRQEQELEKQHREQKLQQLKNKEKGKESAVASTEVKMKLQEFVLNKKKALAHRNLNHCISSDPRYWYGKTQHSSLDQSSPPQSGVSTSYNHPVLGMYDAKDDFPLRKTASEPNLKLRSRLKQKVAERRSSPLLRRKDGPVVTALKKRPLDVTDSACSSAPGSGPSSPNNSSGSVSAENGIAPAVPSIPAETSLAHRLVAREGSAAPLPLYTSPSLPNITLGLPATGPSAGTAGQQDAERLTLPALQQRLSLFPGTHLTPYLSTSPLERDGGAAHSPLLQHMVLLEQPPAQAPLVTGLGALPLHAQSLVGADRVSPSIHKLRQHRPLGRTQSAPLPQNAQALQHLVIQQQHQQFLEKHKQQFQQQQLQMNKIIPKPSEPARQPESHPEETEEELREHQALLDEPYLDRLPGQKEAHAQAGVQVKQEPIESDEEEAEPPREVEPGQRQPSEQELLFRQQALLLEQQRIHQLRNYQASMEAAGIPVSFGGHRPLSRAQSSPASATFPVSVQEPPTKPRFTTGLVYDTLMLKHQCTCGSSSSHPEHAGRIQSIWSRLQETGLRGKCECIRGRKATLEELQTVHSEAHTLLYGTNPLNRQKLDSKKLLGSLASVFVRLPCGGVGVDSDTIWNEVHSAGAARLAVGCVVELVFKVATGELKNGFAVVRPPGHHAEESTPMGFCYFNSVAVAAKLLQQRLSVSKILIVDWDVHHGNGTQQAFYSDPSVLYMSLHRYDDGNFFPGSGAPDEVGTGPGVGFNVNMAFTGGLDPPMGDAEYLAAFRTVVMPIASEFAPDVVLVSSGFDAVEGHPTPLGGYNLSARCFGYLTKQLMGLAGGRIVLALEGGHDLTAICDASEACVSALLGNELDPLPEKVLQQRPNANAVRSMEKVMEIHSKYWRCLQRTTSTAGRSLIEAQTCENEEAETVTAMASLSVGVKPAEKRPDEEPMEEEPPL

[9] = target: Muscarinic acetylcholine receptor M2 (Homo sapiens) (UniProt P08172); experiment: Inhibition of human muscarinic M2 receptor at 10 uM relative to control
Sequence of Muscarinic acetylcholine receptor M2 (Homo sapiens) (P08172 whole entry): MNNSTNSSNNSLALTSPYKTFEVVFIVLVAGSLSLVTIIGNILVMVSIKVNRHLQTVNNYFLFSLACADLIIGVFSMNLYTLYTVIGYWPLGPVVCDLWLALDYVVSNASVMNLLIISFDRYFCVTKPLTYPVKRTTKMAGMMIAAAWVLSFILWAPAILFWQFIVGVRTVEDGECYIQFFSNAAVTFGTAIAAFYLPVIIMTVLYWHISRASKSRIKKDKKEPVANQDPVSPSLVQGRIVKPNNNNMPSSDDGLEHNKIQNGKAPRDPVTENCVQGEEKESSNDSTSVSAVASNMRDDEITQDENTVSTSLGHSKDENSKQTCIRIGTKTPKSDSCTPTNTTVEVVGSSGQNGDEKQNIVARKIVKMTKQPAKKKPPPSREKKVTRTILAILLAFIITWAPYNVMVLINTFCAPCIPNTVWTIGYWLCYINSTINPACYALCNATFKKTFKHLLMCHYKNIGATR

[10] = target: Protein max (Homo sapiens) (UniProt P61244); experiment: Inhibition of MAX in HUVEC assessed as reduction of MAX transcriptional activity by genome-wide RNA-seq and ChlP-seq analysis; format: cell-based
Sequence of Protein max (Homo sapiens) (P61244 whole entry): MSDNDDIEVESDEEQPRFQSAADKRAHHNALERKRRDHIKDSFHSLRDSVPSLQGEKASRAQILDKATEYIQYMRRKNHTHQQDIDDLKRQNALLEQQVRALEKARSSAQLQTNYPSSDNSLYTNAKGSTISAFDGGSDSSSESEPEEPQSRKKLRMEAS

4T1.2 [11] = experiment: Antitumor activity against mouse 4T1.2 cells implanted in BALB/c mouse assessed as median disease latency time at 5 to 50 mg/kg/day for 10 days and measured up to 60 days after tumor inoculation; format: functional, organism-based
4T1.2 [12] = experiment: Inhibition of tumor induced lymphangiogenesis response in mouse 4T1.2 cells implanted BALB/c mouse assessed as reduction in tumor associated lymphatic vessels at 25 mg/kg/day for 10 days by PROX1/podoplanin detection based immunofluorescent staining relative to control; format: functional; details: 4T1.2, 240 h
[13] = Plasma concentration in BALB/c mouse xenografted with mouse 4T1.2 cells at 25 mg/kg/day for 10 days measured at day 12; format: ADME, organism-based
4T1.2 [14] = experiment: Antitumor activity against mouse 4T1.2 cells implanted in BALB/c mouse assessed as effect on tumor size at 25 mg/kg/day for 10 days; format: functional, organism-based
[15] = target: Transcription factor Jun (Homo sapiens) (UniProt P05412); experiment: Inhibition of c-JUN in HUVEC assessed as reduction of c-JUN transcriptional activity by genome-wide RNA-seq and ChlP-seq analysis; format: cell-based
Sequence of Transcription factor Jun (Homo sapiens) (P05412 whole entry): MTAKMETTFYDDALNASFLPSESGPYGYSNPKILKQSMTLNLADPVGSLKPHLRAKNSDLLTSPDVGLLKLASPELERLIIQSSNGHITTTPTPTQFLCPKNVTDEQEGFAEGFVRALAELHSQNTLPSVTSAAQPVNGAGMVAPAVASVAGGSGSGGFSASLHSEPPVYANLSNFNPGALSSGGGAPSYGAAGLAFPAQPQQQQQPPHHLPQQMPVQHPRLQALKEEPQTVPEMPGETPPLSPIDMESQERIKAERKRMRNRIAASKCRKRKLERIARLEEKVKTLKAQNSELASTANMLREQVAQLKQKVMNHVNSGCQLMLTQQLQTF

[16] = target: Histone-lysine N-methyltransferase EZH2 (Homo sapiens) (UniProt Q15910); experiment: Inhibition of EZH2 in HUVEC assessed as reduction of EZH2 transcriptional activity by genome-wide RNA-seq and ChlP-seq analysis; format: cell-based
Sequence of Histone-lysine N-methyltransferase EZH2 (Homo sapiens) (Q15910 whole entry, looked up): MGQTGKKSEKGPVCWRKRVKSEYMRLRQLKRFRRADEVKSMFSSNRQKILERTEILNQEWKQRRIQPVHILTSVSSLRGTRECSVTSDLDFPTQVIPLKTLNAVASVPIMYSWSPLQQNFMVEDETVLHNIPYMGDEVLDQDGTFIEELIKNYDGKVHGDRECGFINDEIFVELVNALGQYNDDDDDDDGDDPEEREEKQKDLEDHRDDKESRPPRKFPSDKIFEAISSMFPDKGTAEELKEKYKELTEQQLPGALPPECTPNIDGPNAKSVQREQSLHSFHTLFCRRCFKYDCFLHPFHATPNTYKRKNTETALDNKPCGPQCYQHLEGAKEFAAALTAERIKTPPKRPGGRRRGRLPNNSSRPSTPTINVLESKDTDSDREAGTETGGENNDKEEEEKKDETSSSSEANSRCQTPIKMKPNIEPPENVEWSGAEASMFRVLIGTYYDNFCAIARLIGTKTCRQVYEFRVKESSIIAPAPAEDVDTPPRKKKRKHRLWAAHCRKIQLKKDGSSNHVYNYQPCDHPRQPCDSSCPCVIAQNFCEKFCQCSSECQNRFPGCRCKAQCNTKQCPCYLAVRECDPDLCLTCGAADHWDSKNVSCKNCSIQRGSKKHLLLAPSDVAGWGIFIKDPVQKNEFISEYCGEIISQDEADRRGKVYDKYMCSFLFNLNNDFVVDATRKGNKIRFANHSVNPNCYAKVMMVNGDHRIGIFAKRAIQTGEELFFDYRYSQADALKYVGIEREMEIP

4T1.2 [17] = experiment: Antitumor activity against mouse 4T1.2 cells implanted in BALB/c mouse assessed as reduction in mean number of lung metastases at 25 mg/kg/day for 10 days measured at day 28 after tumor inoculation relative to control; format: functional; set-up: scale not given: the % may be the effect or the level left
[18] = target: Estrogen receptor (Homo sapiens) (UniProt P03372); experiment: Inhibition of human ERalpha at 10 uM relative to control
[19] = target: D(1A) dopamine receptor (Homo sapiens) (UniProt P21728); experiment: Inhibition of human dopamine D1 receptor at 10 uM relative to control
[20] = Cytotoxicity in African green monkey COS7 cells assessed as reduction in cell viability incubated for 24 hrs by Alamar blue dye based assay; set-up: species or system COS-7; details: chlorocebus aethiops
Rattus norvegicus = species: Rattus norvegicus; experiment: Inhibition of rat imidazoline I2 receptor at 10 uM relative to control
[21] = target: D(2) dopamine receptor (Homo sapiens) (UniProt P14416); experiment: Inhibition of human dopamine D2S receptor at 10 uM relative to control
[22] = target: Transcription factor SOX-9 (Homo sapiens) (UniProt P48436); experiment: Inhibition of SOX9 in HUVEC assessed as reduction of SOX9-SOX9 interactions up to 200 uM incubated for 45 mins by Alpha-screen assay; format: cell-based
Sequence of Transcription factor SOX-9 (Homo sapiens) (P48436 whole entry): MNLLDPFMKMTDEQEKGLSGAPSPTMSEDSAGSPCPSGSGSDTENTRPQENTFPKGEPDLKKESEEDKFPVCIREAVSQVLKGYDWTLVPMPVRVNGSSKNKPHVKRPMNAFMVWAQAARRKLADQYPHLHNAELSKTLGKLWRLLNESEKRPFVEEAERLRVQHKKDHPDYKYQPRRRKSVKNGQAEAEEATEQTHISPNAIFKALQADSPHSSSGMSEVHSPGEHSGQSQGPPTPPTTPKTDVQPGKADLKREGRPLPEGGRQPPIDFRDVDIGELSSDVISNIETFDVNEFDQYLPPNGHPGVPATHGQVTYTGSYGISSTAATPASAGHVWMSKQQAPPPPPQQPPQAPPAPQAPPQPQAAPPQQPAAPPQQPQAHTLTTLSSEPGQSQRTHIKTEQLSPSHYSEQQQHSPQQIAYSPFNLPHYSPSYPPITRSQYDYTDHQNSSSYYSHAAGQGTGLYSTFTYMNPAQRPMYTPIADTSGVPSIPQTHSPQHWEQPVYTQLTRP

[23] = target: GABA-A receptor; anion channel (Rattus norvegicus) (UniProt O09028+P15431+P18506+P18508+P19969+P20236+P23574+P23576+P28471+P28473+P30191+P62813+P63079+P63138+Q91ZM7+Q9ES14); experiment: Inhibition of rat GABAA channel muscimol binding site at 10 uM relative to control; format: protein-complex assay
Danio rerio [24] = experiment: Induction of arterial and venous genes dys-regulation in zebrafish larvae harboring fli1 a:eGFP,-6.5kdrl:mCherry assessed as effect on prox1a gene expression at 1.5 uM dosed starting from 16 hpf and measured at 24 and 48 hpf by qRT-PCR analysis; format: functional, organism-based
Danio rerio [25] = experiment: Induction of arterial and venous genes dys-regulation in zebrafish larvae harboring fli1 a:eGFP,-6.5kdrl:mCherry assessed as effect on efnb2a gene expression at 1.5 uM dosed starting from 16 hpf and measured at 24 and 48 hpf by qRT-PCR analysis; format: functional, organism-based
[26] = target: Glucocorticoid receptor (Homo sapiens) (UniProt P04150); experiment: Inhibition of human glucocorticoid receptor at 10 uM relative to control
Sequence of Glucocorticoid receptor (Homo sapiens) (P04150 whole entry): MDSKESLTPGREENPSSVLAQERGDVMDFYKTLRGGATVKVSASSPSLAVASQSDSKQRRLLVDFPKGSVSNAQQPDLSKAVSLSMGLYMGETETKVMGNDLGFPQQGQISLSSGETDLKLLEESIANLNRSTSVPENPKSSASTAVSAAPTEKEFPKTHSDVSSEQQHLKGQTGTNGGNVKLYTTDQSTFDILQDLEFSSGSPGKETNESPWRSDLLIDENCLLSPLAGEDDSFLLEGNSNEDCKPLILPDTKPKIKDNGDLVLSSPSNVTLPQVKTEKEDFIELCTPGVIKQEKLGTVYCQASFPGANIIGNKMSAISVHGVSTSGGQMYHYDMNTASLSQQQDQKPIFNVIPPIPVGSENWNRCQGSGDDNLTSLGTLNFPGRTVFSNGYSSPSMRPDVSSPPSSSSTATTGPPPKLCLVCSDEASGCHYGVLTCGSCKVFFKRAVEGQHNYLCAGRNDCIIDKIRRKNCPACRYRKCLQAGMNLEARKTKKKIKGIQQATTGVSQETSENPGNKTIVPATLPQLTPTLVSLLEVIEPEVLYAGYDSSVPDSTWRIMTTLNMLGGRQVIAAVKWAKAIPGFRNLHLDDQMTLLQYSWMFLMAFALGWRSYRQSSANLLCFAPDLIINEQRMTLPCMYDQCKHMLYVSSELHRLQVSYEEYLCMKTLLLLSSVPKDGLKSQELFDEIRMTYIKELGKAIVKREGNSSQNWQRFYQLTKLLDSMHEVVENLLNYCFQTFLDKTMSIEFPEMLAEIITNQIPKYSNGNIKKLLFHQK

[27] = target: Transcriptional repressor CTCF (Homo sapiens) (UniProt P49711); experiment: Inhibition of CTCF in HUVEC assessed as reduction of CTCF transcriptional activity by genome-wide RNA-seq and ChlP-seq analysis; format: cell-based
[28] = target: Neuronal acetylcholine receptor (Homo sapiens) (UniProt P17787+P30926+P32297+P43681+Q15822+Q9UGM1+Q15825+P30532+P36544+Q9GZZ6+Q05901); experiment: Inhibition of human nAChR at 10 uM relative to control
Danio rerio [29] = experiment: Induction of arterial and venous genes dys-regulation in zebrafish larvae harboring fli1 a:eGFP,-6.5kdrl:mCherry assessed as effect on cdh5 gene expression at 1.5 uM dosed starting from 16 hpf and measured at 24 and 48 hpf by qRT-PCR analysis; format: functional, organism-based
Danio rerio [30] = experiment: Induction of vascular phenotype changes in zebrafish larvae harboring fli1 a:eGFP,-6.5kdrl:mCherry assessed as induction of posterior cardinal vein enlargement with arteriovenous shunts and incomplete trunk circulation at 1.5 uM dosed starting from 16 hpf; format: functional, organism-based
L-type calcium channel = L-type calcium channel (Rattus norvegicus, UniProt P22002+P27732+Q02485); experiment: Inhibition of rat L-type calcium channel at 10 uM relative to control; format: protein assay
4T1.2 [31] = experiment: Antitumor activity against mouse 4T1.2 cells implanted in BALB/c mouse assessed as median disease latency time at 25 mg/kg/day for 10 days (Rvb =33 days); format: functional

SMILES: O=C(O)c1c(O)cccc1CCc1ccc2ccccc2c1
- Activity (Danio rerio [1]): Active
- inhibition [2]: -4%
- inhibition [3]: -6%
- IC50 [4]: Not Active
- Activity (Danio rerio [5]): Active
- inhibition [6]: -5%
- inhibition [7]: -2%
- inhibition [8]: 5.1%
- inhibition [9]: 13%
- inhibition [10]: inactive
- Activity (4T1.2 [11]): Dose-dependent effect
- inhibition in vivo at 25 mg/kg/day (4T1.2 [12]): 65%
- concentration at 240 h [13]: 55.2 µg/mL
- Activity (4T1.2 [14]): inactive
- inhibition [15]: inactive
- inhibition [16]: inactive
- Activity (4T1.2 [17]): 67%
- inhibition [18]: -10%
- inhibition [19]: 12%
- CC50 at 24 h [20]: 117 µM
- inhibition (Rattus norvegicus): 11%
- inhibition [21]: 15%
- inhibition [22]: inactive
- inhibition [23]: 6%
- Activity (Danio rerio [24]): Active
- Activity (Danio rerio [25]): Active
- inhibition [26]: 12%
- inhibition [27]: inactive
- inhibition [28]: 3%
- Activity (Danio rerio [29]): Active
- Activity (Danio rerio [30]): Active
- inhibition at 10 µM (L-type calcium channel): -8%
- Time (4T1.2 [31]): 33 days
